The supplement of paper PMC10307832

Experiments:
Test in all cases: relative viability (nuclei count vs DMSO), 5 days (fraction); higher = more cells survive
NCI-H520 = tested on: NCI-H520
In short: (§1)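 Dosing by pin tool came one day after lung cancer cell lines were seeded in 1536-well plates, using either one drug or a fixed anchor-drug dose plus five library-drug doses (not always all listed) in √10 steps. After 5 days, nuclei were counted on 4× images. Relative viability is treated-well nuclei count divided by vehicle-well nuclei count, and values are medians of duplicate plates.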

NCI-H3122 = tested on: NCI-H3122
In short: as §1

NCI-H838 = tested on: NCI-H838
In short: as §1

NCI-H1944 = tested on: NCI-H1944
In short: as §1

SW 900 = tested on: SW 900
In short: as §1

NCI-H1666 = tested on: NCI-H1666
In short: as §1

NCI-H322M = tested on: NCI-H322M
In short: as §1

NCI-H441 = tested on: NCI-H441
In short: as §1

NCI-H1355 = tested on: NCI-H1355
In short: as §1

NCI-H2085 = tested on: NCI-H2085
In short: as §1

SW 1573 = tested on: SW 1573
In short: as §1

NCI-H460 = tested on: NCI-H460
In short: as §1

NCI-H2347 = tested on: NCI-H2347
In short: as §1

EKVX = tested on: EKVX
In short: as §1

NCI-H1734 = tested on: NCI-H1734
In short: as §1

LK-2 = tested on: LK-2
In short: as §1

NCI-H1755 = tested on: NCI-H1755
In short: as §1

H3255 = tested on: H3255
In short: as §1

NCI-H1650 = tested on: NCI-H1650
In short: as §1

NCI-H650 = tested on: NCI-H650
In short: as §1

NCI-H358 = tested on: NCI-H358
In short: as §1

NCI-H596 = tested on: NCI-H596
In short: as §1

ChaGo-K-1 = tested on: ChaGo-K-1
In short: as §1

A-427 = tested on: A-427
In short: as §1

NCI-H2228 = tested on: NCI-H2228
In short: as §1

With `CCCCCCCCCCCC1=C(O)C(=O)C=C(O)C1=O` [Embelin] + CC(=O)Nc1cccc(-n2c(=O)n(C3CC3)c(=O)c3c(Nc4ccc(I)cc4F)n(C)c(=O)c(C)c32)c1 [Trametinib] (partner 0.02 µM) the relative viability (NCI-H520; first compound 0.08 µM) was 0.689, the relative viability (NCI-H520; first compound 0.8 µM) was 0.72 and the relative viability (NCI-H520; first compound 2.53 µM) was 0.95. It also gave a relative viability (NCI-H520; first compound 8 µM) of 0.705, a relative viability (NCI-H3122; first compound 0.08 µM) of 0.251 and a relative viability (NCI-H3122; first compound 0.8 µM) of 0.253. For the same compound, the relative viability (NCI-H3122; first compound 2.53 µM) was 0.238, the relative viability (NCI-H3122; first compound 8 µM) was 0.263 and the relative viability (NCI-H838; first compound 0.08 µM) was 0.523. For the same compound, the relative viability (NCI-H838; first compound 0.8 µM) was 0.705, the relative viability (NCI-H838; first compound 2.53 µM) was 0.571 and the relative viability (NCI-H838; first compound 8 µM) was 0.511. For the same compound, the relative viability (NCI-H1944; first compound 0.08 µM) was 0.404, the relative viability (NCI-H1944; first compound 0.8 µM) was 0.436 and the relative viability (NCI-H1944; first compound 2.53 µM) was 0.446. It also gave a relative viability (NCI-H1944; first compound 8 µM) of 0.428, a relative viability (SW 900; first compound 0.08 µM) of 0.779 and a relative viability (SW 900; first compound 0.8 µM) of 0.962. The relative viability (SW 900; first compound 2.53 µM) was 0.781, the relative viability (SW 900; first compound 8 µM) was 1.15 and the relative viability (NCI-H1666; first compound 0.08 µM) was 0.813. It also gave a relative viability (NCI-H1666; first compound 0.8 µM) of 0.824, a relative viability (NCI-H1666; first compound 2.53 µM) of 0.838 and a relative viability (NCI-H1666; first compound 8 µM) of 0.91. The relative viability (NCI-H322M; first compound 0.08 µM) was 0.53, the relative viability (NCI-H322M; first compound 0.8 µM) was 0.543 and the relative viability (NCI-H322M; first compound 2.53 µM) was 0.516. The relative viability (NCI-H322M; first compound 8 µM) was 0.49, the relative viability (NCI-H441; first compound 0.08 µM) was 0.399 and the relative viability (NCI-H441; first compound 0.8 µM) was 0.584. The relative viability (NCI-H441; first compound 2.53 µM) was 0.552, the relative viability (NCI-H441; first compound 8 µM) was 0.465 and the relative viability (NCI-H1355; first compound 0.08 µM) was 0.409. For the same compound, the relative viability (NCI-H1355; first compound 0.8 µM) was 0.443, the relative viability (NCI-H1355; first compound 2.53 µM) was 0.392 and the relative viability (NCI-H1355; first compound 8 µM) was 0.418. It also gave a relative viability (NCI-H2085; first compound 0.08 µM) of 0.663, a relative viability (NCI-H2085; first compound 0.8 µM) of 0.579 and a relative viability (NCI-H2085; first compound 2.53 µM) of 0.532. For the same compound, the relative viability (NCI-H2085; first compound 8 µM) was 0.448, the relative viability (SW 1573; first compound 0.08 µM) was 0.604 and the relative viability (SW 1573; first compound 0.8 µM) was 0.636. The relative viability (SW 1573; first compound 2.53 µM) was 0.625, the relative viability (SW 1573; first compound 8 µM) was 0.603 and the relative viability (NCI-H460; first compound 0.08 µM) was 0.173. For the same compound, the relative viability (NCI-H460; first compound 0.8 µM) was 0.202, the relative viability (NCI-H460; first compound 2.53 µM) was 0.151 and the relative viability (NCI-H460; first compound 8 µM) was 0.112. The relative viability (NCI-H2347; first compound 0.08 µM) was 0.307, the relative viability (NCI-H2347; first compound 0.8 µM) was 0.272 and the relative viability (NCI-H2347; first compound 2.53 µM) was 0.255. The relative viability (NCI-H2347; first compound 8 µM) was 0.316, the relative viability (EKVX; first compound 0.08 µM) was 0.328 and the relative viability (EKVX; first compound 0.8 µM) was 0.472. It also gave a relative viability (EKVX; first compound 2.53 µM) of 0.275, a relative viability (EKVX; first compound 8 µM) of 0.429 and a relative viability (NCI-H1734; first compound 0.08 µM) of 0.686. For the same compound, the relative viability (NCI-H1734; first compound 0.8 µM) was 0.789, the relative viability (NCI-H1734; first compound 2.53 µM) was 0.777 and the relative viability (NCI-H1734; first compound 8 µM) was 0.689. For the same compound, the relative viability (LK-2; first compound 0.08 µM) was 0.793, the relative viability (LK-2; first compound 0.8 µM) was 1.02 and the relative viability (LK-2; first compound 2.53 µM) was 0.945. The relative viability (LK-2; first compound 8 µM) was 0.954, the relative viability (NCI-H1755; first compound 0.08 µM) was 0.816 and the relative viability (NCI-H1755; first compound 0.8 µM) was 0.75. It also gave a relative viability (NCI-H1755; first compound 2.53 µM) of 0.841, a relative viability (NCI-H1755; first compound 8 µM) of 0.723 and a relative viability (H3255; first compound 0.08 µM) of 0.601. The relative viability (H3255; first compound 0.8 µM) was 0.764, the relative viability (H3255; first compound 2.53 µM) was 0.717 and the relative viability (H3255; first compound 8 µM) was 0.647. It also gave a relative viability (NCI-H1650; first compound 0.08 µM) of 0.713, a relative viability (NCI-H1650; first compound 0.8 µM) of 0.703 and a relative viability (NCI-H1650; first compound 2.53 µM) of 0.675. The relative viability (NCI-H1650; first compound 8 µM) was 0.703, the relative viability (NCI-H650; first compound 0.08 µM) was 0.977 and the relative viability (NCI-H650; first compound 0.8 µM) was 1.47. For the same compound, the relative viability (NCI-H650; first compound 2.53 µM) was 1.02, the relative viability (NCI-H650; first compound 8 µM) was 0.987 and the relative viability (NCI-H358; first compound 0.08 µM) was 0.137. It also gave a relative viability (NCI-H358; first compound 0.8 µM) of 0.154, a relative viability (NCI-H358; first compound 2.53 µM) of 0.127 and a relative viability (NCI-H358; first compound 8 µM) of 0.14. It also gave a relative viability (NCI-H596; first compound 0.08 µM) of 0.832, a relative viability (NCI-H596; first compound 0.8 µM) of 0.796 and a relative viability (NCI-H596; first compound 2.53 µM) of 0.795. For the same compound, the relative viability (NCI-H596; first compound 8 µM) was 0.748, the relative viability (ChaGo-K-1; first compound 0.08 µM) was 0.966 and the relative viability (ChaGo-K-1; first compound 0.8 µM) was 0.871. The relative viability (ChaGo-K-1; first compound 2.53 µM) was 0.963, the relative viability (ChaGo-K-1; first compound 8 µM) was 0.922 and the relative viability (A-427; first compound 0.08 µM) was 0.732. For the same compound, the relative viability (A-427; first compound 0.8 µM) was 0.785, the relative viability (A-427; first compound 2.53 µM) was 0.7 and the relative viability (A-427; first compound 8 µM) was 0.624. The relative viability (NCI-H2228; first compound 0.08 µM) was 0.491, the relative viability (NCI-H2228; first compound 0.8 µM) was 0.523 and the relative viability (NCI-H2228; first compound 2.53 µM) was 0.609. The relative viability (NCI-H2228; first compound 8 µM) was 0.455.
